Measured values taken from US11987586B1 (TAKEDA PHARMACEUTICAL COMPANY LIMITED, priority 2022, dated 2024).

Assays:
human OX2 receptor = molecular target: T1, human OX2 receptor (Homo sapiens, UniProt O43614); assay: Measurement of orexin type 2 receptor agonist activity (calcium fluorescence, Fluo-4, FDSS); format: cell-based; conditions: 3 uM test compound; CHO cells expressing human OX2 receptor; DMSO = 0%, 10 nM orexin A (human) = 100%
T1 construct: expressed in transfected cells
T1 sequence (O43614 1-444): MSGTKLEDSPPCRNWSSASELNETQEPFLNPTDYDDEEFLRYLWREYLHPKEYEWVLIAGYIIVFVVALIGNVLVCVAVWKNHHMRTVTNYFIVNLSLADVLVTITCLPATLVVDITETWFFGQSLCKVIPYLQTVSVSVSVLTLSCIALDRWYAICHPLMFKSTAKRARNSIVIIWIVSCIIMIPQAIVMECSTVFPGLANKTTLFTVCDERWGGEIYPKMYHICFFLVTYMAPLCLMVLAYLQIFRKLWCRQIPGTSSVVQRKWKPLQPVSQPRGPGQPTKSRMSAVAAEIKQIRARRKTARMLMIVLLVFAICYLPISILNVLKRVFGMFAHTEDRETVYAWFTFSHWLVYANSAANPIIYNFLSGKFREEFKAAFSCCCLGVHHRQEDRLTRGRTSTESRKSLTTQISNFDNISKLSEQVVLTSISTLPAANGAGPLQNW
Summary of the method: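 CHO-K1 cells stably expressing human OX2 receptor (residues 1-444) were loaded with Fluo-4 AM plus probenecid. Calcium fluorescence after compound addition was recorded for 1 min 40 s. Activity (%) was scaled between DMSO (0%) and 10 nM orexin A final (100%).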

cynomolgus monkeys = assay: Evaluation of wake-promoting effects in cynomolgus monkeys (EEG, EMG, locomotor activity); format: in vivo, cynomolgus monkey; conditions: Macaca fascicularis, po, p.o., at zeitgeber time 12, 4 hours after administration, male cynomolgus monkeys, read-out: Wakefulness time (% of vehicle treatment) (Mean, n = 2-4)
Experimental: The wake-promoting effects were evaluated by measuring the electroencephalogram (EEG), electromyogram (EMG) and locomotor activity in cynomolgus monkeys. Under isoflurane anesthesia (0.5-5%, Pfizer Japan Inc., Tokyo, Japan), male cynomolgus monkeys (2-3 years old, Hamri Co., Ltd., Ibaraki, Japan) were surgically implanted with radio-telemetry transmitters (L03-F3, Data Sciences International Inc., MN, USA). The two EEG electrodes were stereotaxically positioned at the parietal area and secured to the cranium with stainless-steel screws in contact with the dura. Bilateral EMG electrodes were implanted into the back cervical muscles. After at least a 1-month recovery period in home cages, the monkeys were habituated to the recording chamber (an acrylic cage 60W×55D×75H (cm)) located in a soundproof and electrically shielded room by the time animals sleep sufficiently in the experimental room. Cortical EEG, EMG and locomotor activity were recorded using the telemetry system (PhysioTel Digital telemetry platform, Data Sciences International Inc.). The signals were semi-automatically scored in 20-second epochs by a sleep scoring system (SleepSign, Kissei Comtec Co., Ltd., Nagano, Japan).
Test compound (1 or 3 mg/kg) suspended in 0.5% methylcellulose aqueous solution or vehicle (i.e., 0.5% methylcellulose aqueous solution) was administered orally (p.o.) to monkeys at zeitgeber time 12 in a volume of 5 mL/kg body weight with a pretest-posttest design (n=2-4), and then EEG, EMG and locomotor activity were recorded for 4 hours after administration. The time spent in wakefulness for 4 hours after administration (% of vehicle treatment) was calculated by using SleepSign.

| OX2R agonist activity (3 uM, %) (human OX2 receptor) [%] | Compound | response vs control in vivo at 3 mg/kg (cynomolgus monkeys; 3 mg/kg) [%] | response vs control in vivo at 1 mg/kg (cynomolgus monkeys) [%] |
| --- | --- | --- | --- |
| 104 | CCS(=O)(=O)N[C@H]1C[C@H]2CN(c3noc4cccc(-c5c(F)cccc5F)c34)C(=O)N2C1 [Example 1, N-{(6S,7aS)-2-[4-(2,6-Difluorophenyl)-1,2-benzoxazol-3-yl]-3-oxohexahydro-1H-pyrrolo[1,2-c]imidazol-6-yl}ethanesulfonamide] | 383 | – |
| 107 | CS(=O)(=O)N[C@@H]1Cn2c(cn(-c3noc4cccc(-c5c(F)cc(F)cc5F)c34)c2=O)C1(F)F [Example 16, N-{(6R)-7,7-Difluoro-3-oxo-2-[4-(2,4,6-trifluorophenyl)-1,2-benzoxazol-3-yl]-2,5,6,7-tetrahydro-3H-pyrrolo[1,2-c]imidazol-6-yl}methanesulfonamide] | – | 546 |
| 104 | CCS(=O)(=O)N[C@@H]1CN2C(=O)N(c3noc4cccc(-c5c(F)cc(F)cc5F)c34)C[C@@H]2C1(F)F [Example 24, N-{(6R,7aR)-7,7-Difluoro-3-oxo-2-[4-(2,4,6-trifluorophenyl)-1,2-benzoxazol-3-yl]hexahydro-1H-pyrrolo[1,2-c]imidazol-6-yl}ethanesulfonamide] | – | 393 |
| 103 | CCS(=O)(=O)N[C@H]1C[C@H]2CN(c3noc4cc(Cl)cc(-c5c(F)cccc5F)c34)C(=O)N2C1 [Example 50, N-{(6S,7aS)-2-[6-Chloro-4-(2,6-difluorophenyl)-1,2-benzoxazol-3-yl]-3-oxohexahydro-1H-pyrrolo[1,2-c]imidazol-6-yl}ethanesulfonamide] | – | 176 |
| 97 | CS(=O)(=O)N[C@@H]1CN2C(=O)N(c3noc4cccc(-c5c(F)cc(F)cc5F)c34)C[C@@H]2C1(F)F [Example 71, N-{(6R,7aR)-7,7-Difluoro-3-oxo-2-[4-(2,4,6-trifluorophenyl)-1,2-benzoxazol-3-yl]hexahydro-1H-pyrrolo[1,2-c]imidazol-6-yl}methanesulfonamide] | – | 703 |
| 100 | CS(=O)(=O)N[C@@H]1Cn2c(cn(-c3noc4ccc(F)c(-c5c(F)cc(F)cc5F)c34)c2=O)C1(F)F [Example 77, N-{(6R)-7,7-Difluoro-2-[5-fluoro-4-(2,4,6-trifluorophenyl)-1,2-benzoxazol-3-yl]-3-oxo-2,5,6,7-tetrahydro-3H-pyrrolo[1,2-c]imidazol-6-yl}methanesulfonamide] | – | 645 |
| 99 | CS(=O)(=O)N[C@@H]1Cn2c(cn(-c3noc4cc(F)c(F)c(-c5c(F)cccc5F)c34)c2=O)C1(F)F [Example 142, N-{(6R)-2-[4-(2,6-difluorophenyl)-5,6-difluoro-1,2-benzoxazol-3-yl]-7,7-difluoro-3-oxo-2,5,6,7-tetrahydro-3H-pyrrolo[1,2-c]imidazol-6-yl}methanesulfonamide] | – | 690 |
| 95 | CS(=O)(=O)N[C@@H]1CN2C(=O)N(c3noc4cc(F)cc(-c5c(F)cc(F)cc5F)c34)C[C@@H]2C1(F)F [Example 149, N-{(6R,7aR)-7,7-Difluoro-2-[6-fluoro-4-(2,4,6-trifluorophenyl)-1,2-benzoxazol-3-yl]-3-oxohexahydro-1H-pyrrolo[1,2-c]imidazol-6-yl}methanesulfonamide] | – | 731 |
| 104 | CS(=O)(=O)N[C@@H]1CN2C(=O)N(c3noc4cccc(-c5c(F)cc(F)cc5F)c34)CC[C@@H]2C1(F)F [Example 213, N-{(4aR,6R)-5,5-Difluoro-1-oxo-2-[4-(2,4,6-trifluorophenyl)-1,2-benzoxazol-3-yl]octahydropyrrolo[1,2-c]pyrimidin-6-yl}methanesulfonamide] | – | 447 |
| 109 | CS(=O)(=O)N[C@@H]1CN2C(=O)N(c3noc4cc(F)c(F)c(-c5c(F)cc(F)cc5F)c34)CC[C@@H]2C1(F)F [Example 243, N-{(4aR,6R)-2-[5,6-difluoro-4-(2,4,6-trifluorophenyl)-1,2-benzoxazol-3-yl]-5,5-difluoro-1-oxooctahydropyrrolo[1,2-c]pyrimidin-6-yl}methanesulfonamide] | – | 618 |
| 99 | CCS(=O)(=O)N[C@@H]1CN2C(=O)N(c3noc4cccc(-c5ccsc5)c34)CC[C@@H]2C1(F)F [Example 326, N-{(4aR,6R)-5,5-difluoro-1-oxo-2-[4-(thiophen-3-yl)-1,2-benzoxazol-3-yl]octahydropyrrolo[1,2-c]pyrimidin-6-yl}ethanesulfonamide] | – | – |
| 118 | CCS(=O)(=O)N[C@@H]1CN2C(=O)N(c3noc4cccc(-c5ccccc5Cl)c34)CC[C@@H]2C1(F)F [Example 327, N-{(4aR,6R)-2-[4-(2-chlorophenyl)-1,2-benzoxazol-3-yl]-5,5-difluoro-1-oxooctahydropyrrolo[1,2-c]pyrimidin-6-yl}ethanesulfonamide] | – | – |
| 103 | CCS(=O)(=O)N[C@@H]1CN2C(=O)N(c3noc4cccc(-c5cccs5)c34)CC[C@@H]2C1(F)F [Example 328, N-{(4aR,6R)-5,5-difluoro-1-oxo-2-[4-(thiophen-2-yl)-1,2-benzoxazol-3-yl]octahydropyrrolo[1,2-c]pyrimidin-6-yl}ethanesulfonamide] | – | – |
| 101 | CCS(=O)(=O)N[C@@H]1CN2C(=O)N(c3noc4cccc(-c5ccc(F)cc5Cl)c34)CC[C@@H]2C1(F)F [Example 329, N-{(4aR,6R)-2-[4-(2-chloro-4-fluorophenyl)-1,2-benzoxazol-3-yl]-5,5-difluoro-1-oxooctahydropyrrolo[1,2-c]pyrimidin-6-yl}ethanesulfonamide] | – | – |
| 109 | CCS(=O)(=O)N[C@@H]1CN2C(=O)N(c3noc4cccc(-c5nccs5)c34)CC[C@@H]2C1(F)F [Example 330, N-{(4aR,6R)-5,5-difluoro-1-oxo-2-[4-(1,3-thiazol-2-yl)-1,2-benzoxazol-3-yl]octahydropyrrolo[1,2-c]pyrimidin-6-yl}ethanesulfonamide] | – | – |
| 45 | CCS(=O)(=O)N[C@@H]1CN2C(=O)N(c3noc4cccc(C5CCC5)c34)CC[C@@H]2C1(F)F [Example 331, N-[(4aR,6R)-2-(4-cyclobutyl-1,2-benzoxazol-3-yl)-5,5-difluoro-1-oxooctahydropyrrolo[1,2-c]pyrimidin-6-yl]ethanesulfonamide] | – | – |
| 106 | CCS(=O)(=O)N[C@@H]1CN2C(=O)N(c3noc4cccc(-c5sccc5C)c34)CC[C@@H]2C1(F)F [Example 332, N-{(4aR,6R)-5,5-difluoro-2-[4-(3-methylthiophen-2-yl)-1,2-benzoxazol-3-yl]-1-oxooctahydropyrrolo[1,2-c]pyrimidin-6-yl}ethanesulfonamide] | – | – |
| 68 | CCS(=O)(=O)N[C@@H]1CN2C(=O)N(c3noc4cccc(N5CCCCC5)c34)CC[C@@H]2C1(F)F [Example 333, N-{(4aR,6R)-5,5-difluoro-1-oxo-2-[4-(piperidin-1-yl)-1,2-benzoxazol-3-yl]octahydropyrrolo[1,2-c]pyrimidin-6-yl}ethanesulfonamide] | – | – |
| 111 | CCS(=O)(=O)N[C@@H]1CN2C(=O)N(c3noc4cccc(-c5ccccc5F)c34)CC[C@@H]2C1(F)F [Example 334, N-{(4aR,6R)-5,5-difluoro-2-[4-(2-fluorophenyl)-1,2-benzoxazol-3-yl]-1-oxooctahydropyrrolo[1,2-c]pyrimidin-6-yl}ethanesulfonamide] | – | – |
| 101 | CCS(=O)(=O)N[C@@H]1CN2C(=O)N(c3noc4cccc(-c5ncc(F)cc5C)c34)CC[C@@H]2C1(F)F [Example 335, N-{(4aR,6R)-5,5-difluoro-2-[4-(5-fluoro-3-methylpyridin-2-yl)-1,2-benzoxazol-3-yl]-1-oxooctahydropyrrolo[1,2-c]pyrimidin-6-yl}ethanesulfonamide] | – | – |
